≈ marks a conversion by molar mass, not a printed value.
Assays:
[1] = Stability to sterilisation; assay type: physicochemical; details: treated at 121 °C for 10 mn
[2] = Neurotoxicity: acute toxicity by intracerebral administration; set-up: species or system souris; details: mouse, in vivo, female SWISS OF1 mice, toxicity noted 7 days after administration, read-out: DL50 IC
From the text: - la toxicité aiguë des composés a été déterminée sur souris femelles (poids 20 g) de souche SWISS OF1 par administration intra-cérébrale selon la technique décrite par HOLEY et Mc CQRMICK dans :
Pharmacological effects produced by intracerebral injection of drugs in the conscious mouse BRIT.J.PHARMACOL. 12, 2. 1957.
5 animaux sont utilisés par dose, les volumes administrés sont de 0,05 cm^3 - 0,07 cm^3 - 0,10 cm^3 par souris soit 2,5 - 3,5 et 5 cm^3 par kg, avec des vitesses d'injection lentes.
La toxicité (DL50) est notée 7 jours après l'administration. 2) Osmolalité

[3] = Osmolality by cryoscopy (FISKE-OS osmometer); assay type: physicochemical
From the text: (§1) - l'osmolalité exprimée en mosmoles par kg, est déterminée par cryoscopie à l'aide d'un osmomètre de type FISKE-OS Les résultats sont donnés dans le tableau suivant où l'on a également donné 1a solubilité des composés

Solubility = assay type: physicochemical; details: read-out: Solubilité
From the text: as §1

Question: With CC(=O)N(CC(O)CO)c1c(I)c(N(CC(O)CO)C(C)=O)c(I)c(N(CC(O)CO)C(C)=O)c1I (centres unmarked) [Exemple 3, 2,4,6-triiodo-1,3,5-tris [N-(2,3-dihydroxy propyl)acétamido]benzène] as the compound, how does the “stables à la stérilisation” value [1] read?
Answer: Its value is “ne présentent pas de modifications”.

Question: And the LD50 at 168 h [2]?
Answer: The LD50 at 168 h was 4000 µmol/kg.

Question: What about the Osmolalité [3] of the same compound?
Answer: The Osmolalité was 630 mosmol par kg.

Question: And the solubility (Solubility)?
Answer: Its solubility is 1000 mM (≈ 849 mg/mL).

Question: Which “stables à la stérilisation” value [1] does the source give for COCC(=O)Nc1c(I)c(N(CC(O)CO)C(C)=O)c(I)c(N(CC(O)CO)C(C)=O)c1I (centres unmarked) [Exemple 8] here?
Answer: The value was “ne présentent pas de modifications”.

Question: And the LD50 at 168 h [2]?
Answer: Its LD50 at 168 h is 3300 µmol/kg.

Question: And the solubility (Solubility)?
Answer: Its solubility is 940 mM (≈ 757 mg/mL).

Question: With CC(=O)N(CC(O)CO)c1c(I)c(NC(=O)C(C)O)c(I)c(N(CC(O)CO)C(C)=O)c1I (centres unmarked) [Exemple 9, 2,4,6-triiodo-1-(2-hydroxypropionyl-amino)-3,5-bis [N-(2,3-dihydroxy propyl)acétamido]benzène] as the compound, how does the “stables à la stérilisation” value [1] read?
Answer: Its value is “ne présentent pas de modifications”.

Question: What about the LD50 at 168 h [2] of the same compound?
Answer: The LD50 at 168 h was 3500 µmol/kg.

Question: And the Osmolalité [3]?
Answer: Its Osmolalité is 690 mosmol par kg.

Question: And the solubility (Solubility)?
Answer: Its solubility is 1000 mM (≈ 805 mg/mL).

From patent EP0177414A1, “Jodized triaminobenzene compounds, process for their preparation and their use in contrast products” (GUERBET S.A., priority 1984, dated 1986)
